For assay [1], the system named is DU145 cells. The experiment in a line: Proliferation assay DU145. It is filed as cell-based, human. As to conditions: 4 days, crystal violet, read-out: Inhibition of DU145 cell proliferation IC50. As for the experimental part:
Cultivated tumour cells (HeLa, human cervical tumour cells, ATCC CCL-2; NCI-H460, human non-small cell lung carcinoma cells, ATCC HTB-177; A2780, human ovarian carcinoma cells, ECACC #93112519; DU 145, hormone-independent human prostate carcinoma cells, ATCC HTB-81; HeLa-MaTu-ADR, multidrug-resistant human cervical carcinoma cells, EPO-GmbH Berlin; Caco-2, human colorectal carcinoma cells, ATCC HTB-37; B16F10, mouse melanoma cells, ATCC CRL-6475) were plated at a density of 5,000 cells/well (DU145, HeLa-MaTu-ADR), 3,000 cells/well (NCI-H460, HeLa), 2,500 cells/well (A2780), 1,500 cells/well (Caco-2), or 1,000 cells/well (B16F10) in a 96-well multititer plate in 200 μL of their respective growth medium supplemented 10% fetal calf serum. After 24 hours, the cells of one plate (zero-point plate) were stained with crystal violet (see below), while the medium of the other plates was replaced by fresh culture medium (200 μl), to which the test substances were added in various concentrations (0 μM, as well as in the range of 0.001-10 μM). The cells were incubated for 4 days in the presence of test substances. Cell proliferation was determined by staining the cells with crystal violet: the cells were fixed by adding 20 μl/measuring point of an 11% glutaric aldehyde solution for 15 minutes at room temperature. After three washing cycles of the fixed cells with water, the plates were dried at room temperature. The cells were stained by adding 100 μl/measuring point of a 0.1% crystal violet solution (pH 3.0). After three washing cycles of the stained cells with water, the plates were dried at room temperature. The dye was dissolved by adding 100 μl/measuring point of a 10% acetic acid solution. The extinction was determined by photometry at a wavelength of 595 nm. The change of cell number, in percent, was calculated by normalization of the measured values to the extinction values of the zero-point plate (=0%) and the extinction of the untreated (0 μm) cells (=100%). The IC50 values (inhibitory concentration at 50% of maximal effect) were determined by means of a 4 parameter fit. Non-adherent MOLM-13 human acute myeloid leukemia cells (DSMZ ACC 554) were seeded at a density of 5,000 cells/well in a 96-well multititer plate in 100 μL of growth medium supplemented 10% fetal calf serum. After 24 hours, cell viability of one plate (zero-point plate) was determined with the Cell Titre-Glo Luminescent Cell Viability Assay (Promega), while 50 μL of test compound containing medium was added to the wells of the other plates (final concentrations in the range of 0.001-1 μM and DMSO controls). Cell viability was assessed after 72-hour exposure with the Cell Titre-Glo Luminescent Cell Viability Assay (Promega). IC50 values (inhibitory concentration at 50% of maximal effect) were determined by means of a 4 parameter fit on measurement data which were normalized to vehicle (DMSO) treated cells (=100%) and measurement readings taken immediately before compound exposure (=0%).

Assay [2] deals with T1, CDK9/CycT1 (Homo sapiens, UniProt P50750).
T1 construct: Recombinant full-length His-tagged human CDK9 and CycT1; His; purchased Invitrogen PV4131; host or cells: insect cells
The experiment in a line: CDK9/CycT1 kinase assay (TR-FRET, Method 1a). The assay is classed as biochemical. As to conditions: for IC50: Method 1a, 10 μM ATP; for Selectivity CDK9 over CDK2: IC50 (CDK2)/IC50 (CDK9): Methods 1a and 2a, minimal values where CDK9 IC50 is at the assay limit. The source says: 1a. CDK9/CycT1 Kinase Assay:
CDK9/CycT1-inhibitory activity of compounds of the present invention was quantified employing the CDK9/CycT1 TR-FRET assay as described in the following paragraphs:
Recombinant full-length His-tagged human CDK9 and CycT1, expressed in insect cells and purified by Ni-NTA affinity chromatography, were purchased from Invitrogen (Cat. No PV4131). As substrate for the kinase reaction biotinylated peptide biotin-Ttds-YISPLKSPYKISEG (C-terminus in amid form) was used which can be purchased e.g. from the company JERINI Peptide Technologies (Berlin, Germany). For the assay 50 nl of a 100 fold concentrated solution of the test compound in DMSO was pipetted into a black low volume 384 well microtiter plate (Greiner Bio-One, Frickenhausen, Germany), 2 μl of a solution of CDK9/CycT1 in aqueous assay buffer [50 mM Tris/HCl pH 8.0, 10 mM MgCl2, 1.0 mM dithiothreitol, 0.1 mM sodium ortho-vanadate, 0.01% (v/v) Nonidet-P40 (Sigma)] were added and the mixture was incubated for 15 min at 22° C. to allow pre-binding of the test compounds to the enzyme before the start of the kinase reaction. […] The concentration of CDK9/CycT1 was adjusted depending of the activity of the enzyme lot and was chosen appropriate to have the assay in the linear range, typical concentrations were in the range of 1 μg/mL. The reaction was stopped by the addition of 5 μl of a solution of TR-FRET detection reagents (0.2 μM streptavidine-XL665 [Cisbio Bioassays, Codolet, France] and 1 nM anti-RB(pSer807/pSer811)-antibody from BD Pharmingen [#558389] and 1.2 nM LANCE EU-W1024 labeled anti-mouse IgG antibody [Perkin-Elmer, product no. AD0077]) in an aqueous EDTA-solution (100 mM EDTA, 0.2% (w/v) bovine serum albumin in 100 mM HEPES pH 7.5).
The resulting mixture was incubated 1 h at 22° C. to allow the formation of complex between the phosphorylated biotinylated peptide and the detection reagents. Subsequently the amount of phosphorylated substrate was evaluated by measurement of the resonance energy transfer from the Eu-chelate to the streptavidine-XL. Therefore, the fluorescence emissions at 620 nm and 665 nm after excitation at 350 nm was measured in a HTRF reader, e.g. a Rubystar (BMG Labtechnologies, Offenburg, Germany) or a Viewlux (Perkin-Elmer). The ratio of the emissions at 665 nm and at […] was taken as the measure for the amount of phosphorylated substrate. The data were normalised (enzyme reaction without inhibitor=0% inhibition, all other assay components but no enzyme=100% inhibition).

Like-named read-outs stand apart in the source and are kept apart here.

T1 sequence (P50750 whole entry): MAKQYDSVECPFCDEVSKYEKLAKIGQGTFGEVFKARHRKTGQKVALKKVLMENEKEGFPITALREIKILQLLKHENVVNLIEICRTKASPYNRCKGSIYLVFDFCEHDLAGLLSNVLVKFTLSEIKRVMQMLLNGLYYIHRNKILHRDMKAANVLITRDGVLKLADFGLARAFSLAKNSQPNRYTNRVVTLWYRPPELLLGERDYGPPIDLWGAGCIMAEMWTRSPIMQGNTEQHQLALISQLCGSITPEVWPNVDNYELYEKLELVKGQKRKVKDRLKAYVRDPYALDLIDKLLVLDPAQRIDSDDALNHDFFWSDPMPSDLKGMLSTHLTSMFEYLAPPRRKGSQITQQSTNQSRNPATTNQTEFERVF
T1 sequence (O60563 whole entry partner): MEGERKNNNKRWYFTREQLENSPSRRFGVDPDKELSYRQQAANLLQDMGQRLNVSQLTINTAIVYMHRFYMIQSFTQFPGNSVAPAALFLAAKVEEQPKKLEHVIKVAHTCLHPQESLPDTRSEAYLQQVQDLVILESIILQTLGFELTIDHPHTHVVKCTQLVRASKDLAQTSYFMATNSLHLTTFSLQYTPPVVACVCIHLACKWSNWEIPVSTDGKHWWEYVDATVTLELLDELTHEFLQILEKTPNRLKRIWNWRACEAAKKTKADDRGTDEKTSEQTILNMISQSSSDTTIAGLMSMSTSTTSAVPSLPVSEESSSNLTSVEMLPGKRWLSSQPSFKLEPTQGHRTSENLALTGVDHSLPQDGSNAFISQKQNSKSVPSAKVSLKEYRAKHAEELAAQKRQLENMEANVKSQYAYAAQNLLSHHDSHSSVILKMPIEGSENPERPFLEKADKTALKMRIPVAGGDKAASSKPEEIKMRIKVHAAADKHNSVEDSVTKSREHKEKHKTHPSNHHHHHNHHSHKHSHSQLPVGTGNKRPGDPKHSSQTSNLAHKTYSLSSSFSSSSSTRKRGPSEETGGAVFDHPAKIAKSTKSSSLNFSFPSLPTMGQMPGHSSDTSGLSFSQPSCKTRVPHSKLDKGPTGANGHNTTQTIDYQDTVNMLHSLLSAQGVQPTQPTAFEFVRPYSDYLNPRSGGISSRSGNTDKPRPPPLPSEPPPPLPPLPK

As to `NCCS(=O)(=O)Cc1cc2nc(c1)OCCCOc1cc(F)ccc1-c1cc(ncc1F)N2` [Example 26, 2-({[15,19-difluoro-3,4-dihydro-2H,11H-10,6-(azeno)-12,16-(metheno)-1,5,11,13-benzodioxadiazacyclooctadecin-8-yl]methyl}sulfonyl)ethanamine], the IC50 in assay [1] (Homo sapiens, DU-145, 96 h) was found to be 386 nM. Besides, in assay [2], the IC50 came to 5.9 nM and the “Selectivity CDK9 over CDK2: IC50 (CDK2)/IC50 (CDK9)” value stood at 1.7.
Consider “({[15,19-difluoro-3,4-dihydro-2H,11H-10,6-(azeno)-12,16-(metheno)-1,5,11,13-benzodioxadiazacyclooctadecin-8-yl]methyl}sulfonyl)acetic acid [Example 27]”, for which the IC50 in assay [1] was determined as 3360 nM; in assay [2], 2.9 nM. Moreover, the “Selectivity CDK9 over CDK2: IC50 (CDK2)/IC50 (CDK9)” value in assay [2] was determined as 0.8.

The values are drawn from patent US9963464B2, “Macrocyclic compounds” (Bayer Pharma Aktiengesellschaft, priority 2014, dated 2018).
